Test results as given in patent US12319672B2, “Alpha-D-galactopyranoside derivatives” (Idorsia Pharmaceuticals Ltd, priority 2019, dated 2025).
pIC50: −log10 of the molar value.

How the values were obtained:
human Gal-1 (hGal-1) = experiment: Competitive binding assay: binding of biotinylated hGal-1 to microplate-adsorbed asialofetuin (ASF); conditions: Activities on hGal-1; mean values of several measurements
Experimental: (§1) Evaluation of Compound Inhibitory Activity (IC50)
(§2) The inhibitory activity of compounds is determined in competitive binding assays. This spectrophotometric assay measures the binding of biotinylated human Gal-3 (hGal-3) or human Gal-1 (hGal-1), respectively, to a microplate-adsorbed glycoprotein, asialofetuin (ASF) (Proc Natl Acad Sci USA. 2013 Mar. 26; 110(13):5052-7.). Alternatively, and preferably, a human Gal-1 version in which all six cysteines are substituted by serines may be used.
(§3) Briefly, compounds are serially diluted in DMSO (working dilutions). ASF-coated 384 well plates are supplemented with 22.8 μL/well of biotinylated hGal-3 or hGal-1 in assay buffer (i.e. 300-1000 ng/mL biotinylated hGal-3 or hGal-1) to which 1.2 μL of compound working dilutions are added and mixed.
(§4) Plates are incubated for 3 hours at 4° C., then washed with cold assay buffer (3×50 uL), incubated for 1 hour with 25 μL/well of a streptavidin-peroxidase solution (diluted in assay buffer to 80 ng/mL) at 4° C., followed by further washing steps with assay buffer (3×50 uL). Finally, 25 μL/well of ABTS substrate is added.
(§5) The calculated IC50 values may fluctuate depending on the daily assay performance. Fluctuations of this kind are known to those skilled in the art. IC50 values from several measurements are given as mean values.

human Gal-3 (hGal-3) = human Gal-3 (hGal-3) (Homo sapiens (Human), UniProt P17931); experiment: Competitive binding assay: binding of biotinylated hGal-3 to microplate-adsorbed asialofetuin (ASF); conditions: Activity on hGal-3; mean values of several measurements
Experimental: as §1, §2, §3, §4, §5

Sequence of human Gal-1 (hGal-1) (P09382 2-135 limits assumed): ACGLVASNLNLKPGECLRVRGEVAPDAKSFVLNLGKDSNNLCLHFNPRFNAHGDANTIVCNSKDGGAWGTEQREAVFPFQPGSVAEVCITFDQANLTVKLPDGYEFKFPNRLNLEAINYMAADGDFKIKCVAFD
Sequence of human Gal-3 (hGal-3) (P17931 whole entry): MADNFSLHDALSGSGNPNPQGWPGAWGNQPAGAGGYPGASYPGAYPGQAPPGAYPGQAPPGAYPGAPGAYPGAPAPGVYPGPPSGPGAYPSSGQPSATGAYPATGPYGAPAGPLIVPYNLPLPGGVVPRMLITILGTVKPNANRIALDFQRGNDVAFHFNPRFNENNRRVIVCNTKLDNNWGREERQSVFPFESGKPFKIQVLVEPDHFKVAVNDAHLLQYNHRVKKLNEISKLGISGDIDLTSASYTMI

Row | Structure (SMILES) | pIC50 (human Gal-1 (hGal-1)) | pIC50 (human Gal-3 (hGal-3))
1 | O=c1ccc(C2=NOC(C[C@H]3O[C@H](CO)[C@H](O)[C@H](n4cc(-c5cc(F)c(F)c(F)c5)nn4)[C@H]3O)C2)c[nH]1 (mixture of isomers) [Example 2.02] | 5.29 | 6.60
2 | O=c1cc(C2=NOC(C[C@H]3O[C@H](CO)[C@H](O)[C@H](n4cc(-c5cc(F)c(F)c(F)c5)nn4)[C@H]3O)C2)cc[nH]1 (mixture of isomers) [Example 2.03] | 6.26 | 6.52
3 | CO[C@@H]1[C@@H](n2cc(-c3cc(F)c(F)c(F)c3)nn2)[C@@H](O)[C@@H](CO)O[C@@H]1CC1CC(c2cc[nH]c(=O)c2)=NO1 (mixture of isomers) [Example 2.06] | 6.59 | 6.62
4 | CO[C@@H]1[C@@H](n2cc(-c3cc(F)c(F)c(F)c3)nn2)[C@@H](O)[C@@H](CO)O[C@@H]1Cc1cc(C2CCN(C(C)=O)C2)on1 (mixture of isomers) [Example 2.09] | 5.08 | 6.18
5 | CO[C@@H]1[C@@H](n2cc(-c3cc(F)c(F)c(F)c3)nn2)[C@@H](O)[C@@H](CO)O[C@@H]1Cc1cc(C2(O)CCCN(C(C)=O)CC2)on1 (mixture of isomers) [Example 2.10] | 5.35 | 6.35
6 | CC(=O)O[C@@H]1[C@@H](n2cc(-c3cc(F)c(F)c(F)c3)nn2)[C@@H](O)[C@@H](CO)O[C@@H]1CC1CC(C2CCNCC2)=NO1 (mixture of isomers) [Example 3.14, (2R,3R,4S,5R,6R)-5-hydroxy-6-(hydroxymethyl)-2-(((RS)-3-(piperidin-4-yl)-4,5-dihydroisoxazol-5-yl)methyl)-4-(4-(3,4,5-trifluorophenyl)-1H-1,2,3-triazol-1-yl)tetrahydro-2H-pyran-3-yl acetate] | 5.16 | 6.49
7 | COc1ccc(C2=NOC(C[C@H]3O[C@H](CO)[C@H](O)[C@H](n4cc(-c5cc(F)c(F)c(F)c5)nn4)[C@H]3O)C2)cc1 (stereo partly drawn) [Ex 1.02] | 4.27 | 6.31
8 | COc1ccc(C2=NO[C@H](C[C@H]3O[C@H](CO)[C@H](O)[C@H](n4cc(-c5cc(F)c(F)c(F)c5)nn4)[C@H]3O)C2)cc1 [Ex 1.03] | 5.26 | 6.51
9 | COc1ccc(C2=NO[C@@H](C[C@H]3O[C@H](CO)[C@H](O)[C@H](n4cc(-c5cc(F)c(F)c(F)c5)nn4)[C@H]3O)C2)cc1 [Ex 1.04] | < 4.00 | 6.24

More lines, now with the values ahead:

Row | pIC50 (human Gal-1 (hGal-1)) | pIC50 (human Gal-3 (hGal-3)) | Structure (SMILES)
10 | 5.82 | 6.59 | CO[C@@H]1[C@@H](n2cc(-c3cc(F)c(F)c(F)c3)nn2)[C@@H](O)[C@@H](CO)O[C@@H]1CC1CN(C2CCN(C(=O)N(C)C)CC2)C(=O)O1 (mixture of isomers) [Example 5.11, 4-((RS)-5-(((2R,3R,4S,5R,6R)-5-hydroxy-6-(hydroxymethyl)-3-methoxy-4-(4-(3,4,5-trifluorophenyl)-1H-1,2,3-triazol-1-yl)tetrahydro-2H-pyran-2-yl)methyl)-2-oxooxazolidin-3-yl)-N,N-dimethylpiperidine-1-carboxamide]
11 | 4.38 | 6.20 | CO[C@@H]1[C@@H](n2cc(-c3cc(F)c(F)c(F)c3)nn2)[C@@H](O)[C@@H](CO)O[C@@H]1CC1CN(CC2CCN(C(=O)OC(C)(C)C)CC2)C(=O)O1 (mixture of isomers) [Example 5.16, tert-butyl 4-(((RS)-5-(((2R,3R,4S,5R,6R)-5-hydroxy-6-(hydroxymethyl)-3-methoxy-4-(4-(3,4,5-trifluorophenyl)-1H-1,2,3-triazol-1-yl)tetrahydro-2H-pyran-2-yl)methyl)-2-oxooxazolidin-3-yl)methyl)piperidine-1-carboxylate]
12 | 5.04 | 6.72 | CO[C@@H]1[C@@H](n2cc(-c3cc(F)c(F)c(F)c3)nn2)[C@@H](O)[C@@H](CO)O[C@@H]1CC1CN(C2CCOCC2)C(=O)O1 (mixture of isomers) [Example 5.17, (RS)-5-(((2R,3R,4S,5R,6R)-5-hydroxy-6-(hydroxymethyl)-3-methoxy-4-(4-(3,4,5-trifluorophenyl)-1H-1,2,3-triazol-1-yl)tetrahydro-2H-pyran-2-yl)methyl)-3-(tetrahydro-2H-pyran-4-yl)oxazolidin-2-one]
13 | 6.19 | 7.46 | CO[C@@H]1[C@@H](n2cc(-c3cc(F)c(F)c(F)c3)nn2)[C@@H](O)[C@@H](CO)O[C@@H]1CC1CN(C2CCN(S(=O)(=O)CC(C)C)CC2)C(=O)O1 (mixture of isomers) [Example 5.18, (RS)-5-(((2R,3R,4S,5R,6R)-5-hydroxy-6-(hydroxymethyl)-3-methoxy-4-(4-(3,4,5-trifluorophenyl)-1H-1,2,3-triazol-1-yl)tetrahydro-2H-pyran-2-yl)methyl)-3-(1-(isobutylsulfonyl)piperidin-4-yl)oxazolidin-2-one]
14 | 5.86 | 7.00 | CO[C@@H]1[C@@H](n2cc(-c3cc(F)c(F)c(F)c3)nn2)[C@@H](O)[C@@H](CO)O[C@@H]1CC1CN(C2CCN(C(=O)CC(C)(C)C)CC2)C(=O)O1 (mixture of isomers) [Example 5.19, (RS)-3-(1-(3,3-dimethylbutanoyl)piperidin-4-yl)-5-(((2R,3R,4S,5R,6R)-5-hydroxy-6-(hydroxymethyl)-3-methoxy-4-(4-(3,4,5-trifluorophenyl)-1H-1,2,3-triazol-1-yl)tetrahydro-2H-pyran-2-yl)methyl)oxazolidin-2-one]
15 | 5.64 | 6.85 | CO[C@@H]1[C@@H](n2cc(-c3cc(F)c(F)c(F)c3)nn2)[C@@H](O)[C@@H](CO)O[C@@H]1CC1CN(C2CCN(S(=O)(=O)C(F)(F)F)CC2)C(=O)O1 (mixture of isomers) [Example 5.20, (RS)-5-(((2R,3R,4S,5R,6R)-5-hydroxy-6-(hydroxymethyl)-3-methoxy-4-(4-(3,4,5-trifluorophenyl)-1H-1,2,3-triazol-1-yl)tetrahydro-2H-pyran-2-yl)methyl)-3-(1-((trifluoromethyl)sulfonyl)piperidin-4-yl)oxazolidin-2-one]
16 | 5.06 | 6.46 | CO[C@@H]1[C@@H](n2cc(-c3cc(F)c(F)c(F)c3)nn2)[C@@H](O)[C@@H](CO)O[C@@H]1C[C@@H]1CN(C2CCN([S@+]([O-])C(C)(C)C)CC2)C(=O)O1 (mixture of isomers) [Example 5.21, (RS)-3-((RS)-1-(tert-butylsulfinyl)piperidin-4-yl)-5-(((2R,3R,4S,5R,6R)-5-hydroxy-6-(hydroxymethyl)-3-methoxy-4-(4-(3,4,5-trifluorophenyl)-1H-1,2,3-triazol-1-yl)tetrahydro-2H-pyran-2-yl)methyl)oxazolidin-2-one]
17 | 6.12 | 7.17 | CO[C@@H]1[C@@H](n2cc(-c3cc(F)c(F)c(F)c3)nn2)[C@@H](O)[C@@H](CO)O[C@@H]1CC1CN(C2CCN(S(=O)(=O)C(C)(C)C)CC2)C(=O)O1 (mixture of isomers) [Example 5.22, (RS)-3-(1-(tert-butylsulfonyl)piperidin-4-yl)-5-(((2R,3R,4S,5R,6R)-5-hydroxy-6-(hydroxymethyl)-3-methoxy-4-(4-(3,4,5-trifluorophenyl)-1H-1,2,3-triazol-1-yl)tetrahydro-2H-pyran-2-yl)methyl)oxazolidin-2-one]
18 | 5.17 | 6.85 | CO[C@@H]1[C@@H](n2cc(-c3cc(F)c(F)c(F)c3)nn2)[C@@H](O)[C@@H](CO)O[C@@H]1CC1CN(C2CCCCC2)C(=O)O1 (mixture of isomers) [Example 5.23, (RS)-3-cyclohexyl-5-(((2R,3R,4S,5R,6R)-5-hydroxy-6-(hydroxymethyl)-3-methoxy-4-(4-(3,4,5-trifluorophenyl)-1H-1,2,3-triazol-1-yl)tetrahydro-2H-pyran-2-yl)methyl)oxazolidin-2-one]
19 | 5.74 | 6.54 | CO[C@@H]1[C@@H](n2cc(-c3cc(F)c(F)c(F)c3)nn2)[C@@H](O)[C@@H](CO)O[C@@H]1CN1CC(C2CCN(C(=O)OC(C)(C)C)CC2)OC1=O (mixture of isomers) [Example 5.24, tert-butyl 4-((RS)-3-(((2R,3R,4S,5R,6R)-5-hydroxy-6-(hydroxymethyl)-3-methoxy-4-(4-(3,4,5-trifluorophenyl)-1H-1,2,3-triazol-1-yl)tetrahydro-2H-pyran-2-yl)methyl)-2-oxooxazolidin-5-yl)piperidine-1-carboxylate]
20 | 4.90 | 6.13 | COC1CCC(N2C[C@@H](C[C@H]3O[C@H](CO)[C@H](O)[C@H](n4cc(-c5cc(F)c(F)c(F)c5)nn4)[C@H]3OC)OC2=O)CC1 (mixture of isomers) [Example 5.25, (RS)-5-(((2R,3R,4S,5R,6R)-5-hydroxy-6-(hydroxymethyl)-3-methoxy-4-(4-(3,4,5-trifluorophenyl)-1H-1,2,3-triazol-1-yl)tetrahydro-2H-pyran-2-yl)methyl)-3-((1r,4R)-4-methoxycyclohexyl)oxazolidin-2-one]
21 | 4.93 | 5.91 | COC1CCC(N2C[C@H](C[C@H]3O[C@H](CO)[C@H](O)[C@H](n4cc(-c5cc(F)c(F)c(F)c5)nn4)[C@H]3OC)OC2=O)CC1 (mixture of isomers) [Example 5.26, (RS)-5-(((2R,3R,4S,5R,6R)-5-hydroxy-6-(hydroxymethyl)-3-methoxy-4-(4-(3,4,5-trifluorophenyl)-1H-1,2,3-triazol-1-yl)tetrahydro-2H-pyran-2-yl)methyl)-3-((1s,4S)-4-methoxycyclohexyl)oxazolidin-2-one]
